Experimental data taken from US20220064170A1, “BICYCLIC HETEROCYCLIC DERIVATIVES AND THEIR USE AS PHARMACEUTICALS” (Prelude Therapeutics, Incorporated, priority 2018, published 2022).

molecular target: T1, MCL-1 (Homo sapiens, UniProt Q07820); test: Cell Free Mcl-1:Bim affinity assay (Mcl-1 Bim), fluorescence polarization competition; assay type: binding; details: 15 nM MCL-1, 5 nM FITC-Bim peptide tracer, 1 hour at room temperature; Ki calculated from IC50 by Nikolovska-Coleska's equation; read-out: BIM_Ki
T1 construct: purchased BPS Bioscience
T1 sequence (Q07820 whole entry): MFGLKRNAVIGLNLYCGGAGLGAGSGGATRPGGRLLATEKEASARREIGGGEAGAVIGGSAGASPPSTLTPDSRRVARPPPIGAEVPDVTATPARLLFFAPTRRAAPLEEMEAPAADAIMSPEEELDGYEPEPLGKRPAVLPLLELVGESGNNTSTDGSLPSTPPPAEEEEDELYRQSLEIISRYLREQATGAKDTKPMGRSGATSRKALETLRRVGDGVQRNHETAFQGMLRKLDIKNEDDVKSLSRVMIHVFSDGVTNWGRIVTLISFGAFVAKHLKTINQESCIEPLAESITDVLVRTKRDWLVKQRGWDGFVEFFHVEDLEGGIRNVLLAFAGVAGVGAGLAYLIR
Description: The binding affinity of each compounds was measured via fluorescence polarization competition assay, in which the compound competes the same binding site with the ligand, and thus lead to dose-dependent anisotropy reduction. The tracer ligand utilized was a fluorescein isothiocyanate labelled peptide (FITC-[…]) derived from Bim (GenScript).
The assay was carried out in black half-area 96-well NBS plate (Corning), containing 15 nM of MCL-1 (BPS Bioscience), 5 nM of FITC-Bim and 3-fold series diluted test compounds in a total volume of 50 uL of assay buffer (20 mM HEPES, 50 mM NaCl, 0.002% Tween 20 1 mM TCEP and 1% DMSO). The reaction plate was incubated for 1 hour at room temperature. The change of anisotropy is measured by Envision multimode plate reader (PerkinElmer) at emission wavelength 535 nm. Fluorescence polarization was calculated in mP unit and the percentage inhibition was calc. by % inhibition=100×(mPDMSO−mP)/(mPDMSO−mPPC), in which mPDMSO is the DMSO control, and mPPC is the positive control. IC50 values were determined from a 10-point dose response curve by fitting the percent inhibition against compound concentration using the GraphPad Prism software. The inhibition constant Ki was subsequently calculated according Nikolovska-Coleska's equation (Anal. Biochem., 2004, 332, 261),
Where [I]50 is the concentration of the free inhibitor at 50% inhibition, [L]50 is the concentration of the free labeled ligand at 50% inhibition, [P]0 is the concentration of the free protein at 0% inhibition, and Kd is the dissociation constant of the protein-ligand complex.

Row | Molecule | Ki
1 | Cc1c(-c2c(-c3ccc(F)cc3)cn3ncnc(O[C@@H](Cc4ccccc4OCC4CC4)C(=O)O)c23)ccc(OCCN2CCN(C)CC2)c1Cl (atropisomer, axis not shown) [Example 2, (2S)-2-[(5R^a)-5-[3-Chloro-2-methyl-4-[2-(4-methylpiperazin-1-yl)ethoxyl]phenyl]-6-(4-fluoro-phenyl)pyrrolo[2,1-f][1,2,4]triazin-4-yl]oxy-3-[2-(cyclopropylmethoxy)phenyl]propanoic acid] | > 12000 nM
2 | Cc1c(-c2c(-c3ccc(F)cc3)cn3ncnc(O[C@H](Cc4ccccc4OCC4CC4)C(=O)O)c23)ccc(OCCN2CCN(C)CC2)c1Cl (atropisomer, axis not shown; (Sa)) [Example 1, (2R)-2-[(5Sa)-5-[3-Chloro-2-methyl-4-[2-(4-methylpiperazin-1-yl)ethoxy]phenyl]-6-(4-fluoro-phenyl)pyrrolo[2,1-f][1,2,4]triazin-4-yl]oxy-3-[2-(cyclopropylmethoxy)phenyl]propanoic acid] | 205 nM
3 | Cc1c(-c2c(-c3ccc(F)cc3)cn3ncnc(O[C@@H](Cc4ccccc4OCC4CC4)C(=O)O)c23)ccc(OCCN2CCN(C)CC2)c1Cl (atropisomer, axis not shown; (Sa)) [Example 3, (2S)-2-[(5Sa)-5-[3-Chloro-2-methyl-4-[2-(4-methylpiperazin-1-yl)ethoxy]phenyl]-6-(4-fluoro-phenyl)pyrrolo[2,1-f][1,2,4]triazin-4-yl]oxy-3-[2-(cyclopropylmethoxy)phenyl]propanoic acid] | > 12000 nM
4 | Cc1c(-c2c(-c3ccc(F)cc3)cn3ncnc(N[C@@H](Cc4ccccc4OCC4CC4)C(=O)O)c23)ccc(OCCN2CCN(C)CC2)c1Cl (atropisomer, axis not shown; (Sa)) [Example 8, (2S)-2-{[(5Sa)-5-[3-Chloro-2-methyl-4-[2-(4-methylpiperazin-1-yl)ethoxy]phenyl]-6-(4-fluorophenyl)pyrrolo[2,1-f][1,2,4]triazin-4-yl]amino}-3-[2-(cyclopropylmethoxy)phenyl]-propanoic acid] | > 12000 nM
5 | COc1ccccc1-c1nccc(COc2ccccc2C[C@H](Nc2ncnn3cc(-c4ccc(F)cc4)c(-c4ccc(OCCN5CCN(C)CC5)c(Cl)c4C)c23)C(=O)O)n1 (racemic) [Example 11] | 382 nM
6 | Cc1c(-c2c(-c3ccc(F)cc3)cn3ncnc(N[C@H](Cc4ccccc4OCC4CC4)C(=O)O)c23)ccc(OCCN2CCN(C)CC2)c1Cl (single isomer, unassigned) [Example 5] | > 12000 nM
7 | COc1ccccc1-c1nccc(COc2ccccc2C[C@H](Nc2ncnn3cc(-c4ccc(F)cc4)c(-c4ccc(OCCN5CCN(C)CC5)c(Cl)c4C)c23)C(=O)O)n1 (single isomer, unassigned) [Example 12] | 990 nM
8 | (2S)-2-{[(5Ra)-5-[3-Chloro-2-methyl-4-[2-(4-methylpiperazin-1-yl)ethoxy]phenyl]-6-(4-fluorophenyl)pyrrolo[2,1-f][1,2,4]triazin-4-yl]amino}-3-[2-(cyclopropylmethoxy)phenyl]propanoic acid [Example 6] | > 12000 nM

These reach a lower Ki. Values come first.

Row | Ki | Molecule
9 | 11.3 nM | Cc1c(-c2c(-c3ccc(F)cc3)cn3ncnc(O[C@H](Cc4ccccc4OCC4CC4)C(=O)O)c23)ccc(OCCN2CCN(C)CC2)c1Cl (atropisomer, axis not shown; (Ra)) [Example 4, (2R)-2-[(5Ra)-5-[3-Chloro-2-methyl-4-[2-(4-methylpiperazin-1-yl)ethoxy]phenyl]-6-(4-fluoro-phenyl)pyrrolo[2,1-f][1,2,4]triazin-4-yl]oxy-3-[2-(cyclopropylmethoxy)phenyl]propanoic acid]
10 | 0.7 nM | COc1ccccc1-c1nccc(COc2ccccc2C[C@@H](Nc2ncnn3cc(-c4ccc(F)cc4)c(-c4ccc(OCCN5CCN(C)CC5)c(Cl)c4C)c23)C(=O)O)n1 (atropisomer, axis not shown; (Ra)) [Example 13, (2R)-2-{[(5Ra)-5-{3-Chloro-2-methyl-4-[2-(4-methylpiperazin-1-yl)ethoxy]phenyl}-6-(4-fluorophenyl)pyrrolo[2,1-f][1,2,4]triazin-4-yl]amino}-3-(2-{[2-(2-methoxyphenyl)pyrimidin-4-yl]methoxy}phenyl)propanoic acid]
11 | 77.7 nM | Cc1c(-c2c(-c3ccc(F)cc3)cn3ncnc(N[C@H](Cc4ccccc4OCC4CC4)C(=O)O)c23)ccc(OCCN2CCN(C)CC2)c1Cl (single isomer, unassigned) [Example 7]
